Laboratory results reported in publication PMC12112033, “Application of Lipophilic Prodrug Charge Masking Strategy to Obtain Novel, Potential Oxytocin Prodrugs” (International Journal of Molecular Sciences, 2025).

Legend:
in vitro [1] = details: for Papp at 5 h, 10 µM: PAMPA, pH 7.4, Papp ± SD (PAMPA)
Description: The permeability of OT and its prodrugs was estimated by the PAMPA test (Corning, Gentest PAMPA Plate System). The PAMPA method is a common method for the permeability evaluation of early drug candidates. Although this system lacks transporters, paracellular pathway enzymes, and other cell-associated processes, it measures passive diffusion, the primary mechanism by which drugs traverse biological barriers. Consequently, due to its low cost, high throughput, and relative handling ease, it serves as screening tool for predicting drugs absorption potential. The PAMPA reflects the passive transport through biological membranes, and its results are reported to correlate with those obtained from the Caco-2 cell model.
A Gentest Pre-coated PAMPA Plate System was purchased from Corning® (Tewksbury, MA, USA). The assay was performed according to the provider instructions, following Caco-2 convention, where the top well is a donor well. The 10 µM solutions of OT, prodrugs, and permeability markers were prepared in PBS buffer, pH 7.4, from 1 mM stock solutions in dimethyl sulfoxide (DMSO). A total of 300 µL per well of tested compounds was added to the donor, filter plate, which, after distribution of all samples, was coupled with acceptor plate filed with 200 µL of phosphate-buffered saline (PBS) per well. All compounds were measured in triplicate. After 5 h of incubation at 25 °C, 200 µL samples were collected from acceptor and donor wells and analyzed using UHPLC-MS to determine concentrations of compounds.

in vitro [2] = details: human, Caco-2
Protocol: (§1) The transport of OT and its derivatives (Oct-OT, Hoc-OT, Dec-OT, Dod-OT) selected for further in vitro studies was evaluated at a target concentration of approximately 100 µg/mL. Intestinal transport was initiated by adding the tested compounds to the apical compartment for absorptive transport determination. The solutions from the acceptor compartments were sampled at 20-minute intervals to analyze the concentration of transported compounds.
(§2) The Caco-2 cell line (ATCC HTB-37), derived from human colon adenocarcinoma, was obtained from the American Type Culture Collection (ATCC, Manassas, VA, USA). Caco-2 cells were cultured at 37 °C under a 5% CO2 atmosphere using Dulbecco’s Modified Eagle’s Medium (DMEM), supplemented with 20% (v/v) fetal bovine serum, non-essential amino acids 100×, and gentamycin (50 mg/mL). For experiments, the Caco-2 cells were plated at a density of 4 × 10^5 cells per cm^2 on polyethylene terephthalate (PET) capillary pore membranes with a pore size of 0.4 μm and a growth surface area of 1.13 cm^2 (Greiner PET hanging). The culture medium was replaced every 2 days. All experiments were performed on differentiated Caco-2 cell monolayers 21 days post-seeding. To check the integrity of the Caco-2 monolayer, transepithelial electrical resistance (TEER) was measured by employing the Millicell Electrical Resistance System (Millipore, Bedford, MA, USA). Moreover, fluorescein-5(6)-sulfonic acid was used as a transport marker, added to the apical side of the Caco-2 cultures at 200 μg/mL concentration. Fluoresceinated sulfonic acid, with a molecular weight of 478 Da, is a hydrophilic, charged molecule at physiological pH and is considered cell impermeable. Unless specified otherwise, all chemicals were purchased from Merck KGaA (Darmstadt, Germany).
(§3) The analyzed compounds at non-cytotoxic concentration of approximately 100 μg/mL were prepared in Hank’s balanced salt solution (HBSS), which was adapted as a transport medium. […] Before the experiments, the Caco-2 monolayers were washed twice with HBSS and pre-incubated at 37 °C for 30 min. Transport was initiated by adding HBSS to the acceptor (basolateral) side and the analyzed compound to the donor (apical) side, which mimicked absorptive intestinal transport. The Caco-2 cell cultures were placed in the incubator (37 °C) and continuously agitated using a plate shaker (120 rpm). At 20 min intervals, a sample was taken from the acceptor compartment, and HPLC analyzed the concentration of the transported compound. Each sample volume was replaced with fresh HBSS warmed to 37 °C. To quantify the transport of compound across the Caco-2 cell monolayer, the apparent permeability coefficient (Papp) was determined according to the protocol previously described by Tavelin et al.. […]

Caco-2 cell monolayer [3] = experiment: Caco-2 monolayer integrity by TEER before and after treatment; assay type: cell-based, human; details: 100 µg/mL, 2 h treatment
Protocol: This assessment was performed using a dose (100 µg/mL) and treatment time (2 h) similar to those applied in the intestinal transport analysis.
Caco-2 cells were cultured at 37 °C under a 5% CO2 atmosphere using Dulbecco’s Modified Eagle’s Medium (DMEM), supplemented with 20% (v/v) fetal bovine serum, non-essential amino acids 100×, and gentamycin (50 mg/mL). […] The culture medium was replaced every 2 days.

[4] = cited from earlier work
Caco-2 cell monolayer [5] = experiment: in vitro
Protocol: as §1, §2, §3

SMILES	Papp at 5 h, 10 µM (in vitro [1]) [×10⁻⁶ cm/s]	Papp A→B (in vitro [2]) [×10⁻⁶ cm/s]	Caco-2 monolayer integrity (TEER before and after treatment) (Caco-2 cell monolayer [3])	Caco-2 permeability compared to OT (in words) (Caco-2 cell monolayer [5])	PAMPA permeability (in words) (in vitro [1])	Mass Retention (PAMPA) (in vitro [1]; 5 h, 10 µM, pH 7.4) [%]	Time to peak levels after intranasal administration [4] [min]
Cn1c(=O)c2c(ncn2C)n(C)c1=O [Caffeine, reference compound]	22 ± 11.2	–	–	–	–	26	–
CCCCCCCCCCCCOC(=O)N[C@H]1CSSC[C@@H](C(=O)N2CCC[C@H]2C(=O)N[C@@H](CC(C)C)C(=O)NCC(N)=O)NC(=O)[C@H](CC(N)=O)NC(=O)[C@H](CCC(N)=O)NC(=O)[C@H]([C@@H](C)CC)NC(=O)[C@H](Cc2ccc(O)cc2)NC1=O [Dod-OT, Dod-Cys(&)-Tyr-Ile-Gln-Asn-Cys(&)-Pro-Leu-Gly-NH2]	1.08 ± 0.95	–	stable and high monolayer integrity	–	poor permeability	–	–
CCCCCCCCCCOC(=O)N[C@H]1CSSC[C@@H](C(=O)N2CCC[C@H]2C(=O)N[C@@H](CC(C)C)C(=O)NCC(N)=O)NC(=O)[C@H](CC(N)=O)NC(=O)[C@H](CCC(N)=O)NC(=O)[C@H]([C@@H](C)CC)NC(=O)[C@H](Cc2ccc(O)cc2)NC1=O [Dec-OT, Dec-Cys(&)-Tyr-Ile-Gln-Asn-Cys(&)-Pro-Leu-Gly-NH2]	9.28 ± 6.11	–	stable and high monolayer integrity	–	significantly better permeability	–	–
CCCCOC(=O)N[C@H]1CSSC[C@@H](C(=O)N2CCC[C@H]2C(=O)N[C@@H](CC(C)C)C(=O)NCC(N)=O)NC(=O)[C@H](CC(N)=O)NC(=O)[C@H](CCC(N)=O)NC(=O)[C@H]([C@@H](C)CC)NC(=O)[C@H](Cc2ccc(O)cc2)NC1=O [But-OT, But-Cys(&)-Tyr-Ile-Gln-Asn-Cys(&)-Pro-Leu-Gly-NH2]	2.2 ± 0.3	–	–	–	–	–	–
CCOC(=O)N[C@H]1CSSC[C@@H](C(=O)N2CCC[C@H]2C(=O)N[C@@H](CC(C)C)C(=O)NCC(N)=O)NC(=O)[C@H](CC(N)=O)NC(=O)[C@H](CCC(N)=O)NC(=O)[C@H]([C@@H](C)CC)NC(=O)[C@H](Cc2ccc(O)cc2)NC1=O [Et-OT, Et-Cys(&)-Tyr-Ile-Gln-Asn-Cys(&)-Pro-Leu-Gly-NH2]	2.78 ± 0.17	–	–	–	–	–	–

Now from value to molecule, other results behind:

Papp at 5 h, 10 µM (in vitro [1]) [×10⁻⁶ cm/s]	Papp A→B (in vitro [2]) [×10⁻⁶ cm/s]	Caco-2 monolayer integrity (TEER before and after treatment) (Caco-2 cell monolayer [3])	Caco-2 permeability compared to OT (in words) (Caco-2 cell monolayer [5])	PAMPA permeability (in words) (in vitro [1])	SMILES	Mass Retention (PAMPA) (in vitro [1]; 5 h, 10 µM, pH 7.4) [%]	Time to peak levels after intranasal administration [4] [min]
2.37 ± 0.52	–	–	–	–	CC[C@H](C)[C@@H]1NC(=O)[C@H](Cc2ccc(O)cc2)NC(=O)[C@@H](NC(=O)OCCOC)CSSC[C@@H](C(=O)N2CCC[C@H]2C(=O)N[C@@H](CC(C)C)C(=O)NCC(N)=O)NC(=O)[C@H](CC(N)=O)NC(=O)[C@H](CCC(N)=O)NC1=O [MeOEt-OT, MeOEt-Cys(&)-Tyr-Ile-Gln-Asn-Cys(&)-Pro-Leu-Gly-NH2]	–	–
2.2	7.74 ± 0.53	stable and high monolayer integrity	–	–	CC[C@H](C)[C@@H]1NC(=O)[C@H](Cc2ccc(O)cc2)NC(=O)[C@@H](N)CSSC[C@@H](C(=O)N2CCC[C@H]2C(=O)N[C@@H](CC(C)C)C(=O)NCC(N)=O)NC(=O)[C@H](CC(N)=O)NC(=O)[C@H](CCC(N)=O)NC1=O [OT, Cys(&)-Tyr-Ile-Gln-Asn-Cys(&)-Pro-Leu-Gly-NH2, reference compound]	–	15 to 30
2.97 ± 0.64	–	–	–	–	CCCOC(=O)N[C@H]1CSSC[C@@H](C(=O)N2CCC[C@H]2C(=O)N[C@@H](CC(C)C)C(=O)NCC(N)=O)NC(=O)[C@H](CC(N)=O)NC(=O)[C@H](CCC(N)=O)NC(=O)[C@H]([C@@H](C)CC)NC(=O)[C@H](Cc2ccc(O)cc2)NC1=O [Prop-OT, Prop-Cys(&)-Tyr-Ile-Gln-Asn-Cys(&)-Pro-Leu-Gly-NH2]	–	–
4.67 ± 0.66	1.99 ± 0.33	stable and high monolayer integrity	lower permeability than OT	significantly better permeability	CCCCCCOC(=O)N[C@H]1CSSC[C@@H](C(=O)N2CCC[C@H]2C(=O)N[C@@H](CC(C)C)C(=O)NCC(N)=O)NC(=O)[C@H](CC(N)=O)NC(=O)[C@H](CCC(N)=O)NC(=O)[C@H]([C@@H](C)CC)NC(=O)[C@H](Cc2ccc(O)cc2)NC1=O [Hoc-OT, Hoc-Cys(&)-Tyr-Ile-Gln-Asn-Cys(&)-Pro-Leu-Gly-NH2]	–	–
5.93 ± 0.86	14 ± 2.27	stable and high monolayer integrity	–	significantly better permeability	CCCCCCCCOC(=O)N[C@H]1CSSC[C@@H](C(=O)N2CCC[C@H]2C(=O)N[C@@H](CC(C)C)C(=O)NCC(N)=O)NC(=O)[C@H](CC(N)=O)NC(=O)[C@H](CCC(N)=O)NC(=O)[C@H]([C@@H](C)CC)NC(=O)[C@H](Cc2ccc(O)cc2)NC1=O [Oct-OT, Oct-Cys(&)-Tyr-Ile-Gln-Asn-Cys(&)-Pro-Leu-Gly-NH2]	–	–
